Each structure is given as a SMILES string.

This data set in a line: particle size distribution by laser light scattering. The data set is classed as physicochemical. The note with it: volumetric, product of working example 1. The text has this: The product is obtained in a particularly finely divided form with a narrow particle size distribution. The latter can, for example, be seen from the ratio of the D values, D99, D90, D50, (D10). The D value indicates the percentage of particles smaller than the diameter given as the respective D value. The percentage is given as index, i.e.: D90= . . . means “90% of the particles have a (volumetrically determined) diameter of less than . . . ”. The associated data are obtained by means of laser light scattering.
The particle size distribution of the zinc bisglycinate produced as described in working example 1 and shown in FIG. 2a was examined more closely by means of laser light scattering. The results are shown in graph form in FIG. 2c.

As for `NCC(=O)[O-].NCC(=O)[O-].[Zn+2]` [zinc bisglycinate, bis(glycinato-N,O)zinc], the “D10 (10% of the particles have diameters of less than)” value amounted to 0.86 μm, the “D50 (50% of the particles have diameters of less than)” value is 3.41 μm, the “D90 (90% of the particles have diameters of less than)” value came to 6.82 μm and the “D99 (99% of the particles have diameters of less than)” value came to 10.00 μm.
